The source of these data is US12565501B2, “Muscarinic acetylcholine M1 receptor antagonists” (Contineum Therapeutics, Inc., priority 2019, dated 2026).

Counter-ions that a name gives are not always drawn. Like-named read-outs stand apart in the source and are kept apart here.

In the assay the target is T1, human M1 receptor (Homo sapiens, UniProt P11229).
T1 sequence (P11229 1-460): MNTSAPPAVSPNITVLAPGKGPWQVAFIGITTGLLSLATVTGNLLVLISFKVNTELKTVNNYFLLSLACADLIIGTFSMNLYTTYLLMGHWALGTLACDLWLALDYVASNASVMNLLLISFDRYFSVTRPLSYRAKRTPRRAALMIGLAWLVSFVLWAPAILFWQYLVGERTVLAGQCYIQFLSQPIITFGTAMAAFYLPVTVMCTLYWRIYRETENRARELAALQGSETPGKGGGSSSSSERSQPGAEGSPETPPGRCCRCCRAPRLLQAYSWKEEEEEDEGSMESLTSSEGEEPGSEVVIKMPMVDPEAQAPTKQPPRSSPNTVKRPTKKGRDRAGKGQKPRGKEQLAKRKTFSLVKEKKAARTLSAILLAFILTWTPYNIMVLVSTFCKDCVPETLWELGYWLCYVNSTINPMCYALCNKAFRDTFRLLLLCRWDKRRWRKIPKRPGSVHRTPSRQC
The assay is described as follows: In vitro functional assay of muscarinic acetylcholine receptor activity (aequorin calcium flux, reversal of EC80 acetylcholine response). The settings on record: acetylcholine at EC80, calcium flux (luminescence). The format is cell-based. The essentials:
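Antagonist mode: compound (final 0.1% DMSO) and coelenterazine-loaded M1/aequorin CHO-K1 cells incubated 30 min in the dark before EC80 acetylcholine addition. Calcium flash integrated as 40 s luminescence AUC; IC50 derived from dose-response curves.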
(Calcium flux is commonly read through the fluorescence of an indicator in the cells.)

Where [1] appears, read: CHO-K1 cells stably expressing human M1 receptor with aequorin, read-out: M1 IC50.

Broadly, the IC50 is the midpoint of a concentration-inhibition curve. As for `N#Cc1ccc(N2C3CCC2CN(C(=O)CCNC2(c4ccc(F)c(C#N)c4)CC2)C3)nc1` [Example 288, 6-(3-(3-((1-(3-cyano-4-fluorophenyl)cyclopropyl)amino)propanoyl)-3,8-diazabicyclo[3.2.1]octan-8-yl)nicotinonitrile formic acid Salt], the IC50 (M1 IC50, CHO-K1 cells stably expressing human M1 receptor with aequorin) lay within 10 to 100 nM.

As to `N#Cc1ccc(N2C3CCC2CN(C(=O)CCNC2(c4cc(Cl)cc(C#N)c4)CC2)C3)nc1` [Example 289, 6-(3-(3-((1-(3-chloro-5-cyanophenyl)cyclopropyl)amino)propanoyl)-3,8-diazabicyclo[3.2.1]octan-8-yl)nicotinonitrile], the IC50 under setting [1] lay within 100 to 1000 nM. On the same count and under the same terms, the same measure for `N#Cc1ccc(N2C3CCC2CN(C(=O)COC2(c4cccc(C#N)c4F)CC2)C3)nc1` [Example 290, 6-(3-(2-(1-(3-cyano-2-fluorophenyl)cyclopropoxy)acetyl)-3,8-diazabicyclo[3.2.1]octan-8-yl)nicotinonitrile]: 1000 to 10000 nM.

Consider `N#Cc1ccc(N2C3CCC2CN(C(=O)COC2(c4ccc(F)c(C#N)c4)CC2)C3)nc1` [Example 291, 6-(3-(2-(1-(3-cyano-4-fluorophenyl)cyclopropoxy)acetyl)-3,8-diazabicyclo[3.2.1]octan-8-yl)nicotinonitrile], for which, under setting [1], the IC50 was 100 to 1000 nM. The same measure, in the same setting: the same measure for `N#Cc1ccc(N2C3CCC2CN(C(=O)COC2(c4cc(F)cc(C#N)c4)CC2)C3)nc1` [Example 292, 6-(3-(2-(1-(3-cyano-5-fluorophenyl)cyclopropoxy)acetyl)-3,8-diazabicyclo[3.2.1]octan-8-yl)nicotinonitrile]: 100 to 1000 nM; for `COc1ccc(C#N)c(C2(OCC(=O)N3CC4CCC(C3)N4c3ccc(C#N)cn3)CC2)c1` [Example 293, 6-(3-(2-(1-(2-cyano-5-methoxyphenyl)cyclopropoxy)acetyl)-3,8-diazabicyclo[3.2.1]octan-8-yl)nicotinonitrile]: < 10 nM; for `N#Cc1ccc(N2C3CCC2CN(C(=O)COC2(c4ccccc4C#N)CC2)C3)nc1` [Example 294, 6-(3-(2-(1-(2-cyanophenyl)cyclopropoxy)acetyl)-3,8-diazabicyclo[3.2.1]octan-8-yl)nicotinonitrile]: 100 to 1000 nM.

For `N#Cc1ccc(N2C3CCC2CN(C(=O)COC2(c4cccc(C#N)c4)CC2)C3)nc1` [Example 295, 6-(3-(2-(1-(3-cyanophenyl)cyclopropoxy)acetyl)-3,8-diazabicyclo[3.2.1]octan-8-yl)nicotinonitrile], the IC50 under setting [1] lay in the range of 100 to 1000 nM. On to `N#Cc1ccc(C2(OCC(=O)N3CC4CCC(C3)N4c3ccc(C#N)cn3)CC2)cc1` [Example 296, 6-(3-(2-(1-(4-cyanophenyl)cyclopropoxy)acetyl)-3,8-diazabicyclo[3.2.1]octan-8-yl)nicotinonitrile], for which the IC50 under setting [1] is 1000 to 10000 nM. Consider `N#Cc1ccc(N2C3CCC2CN(C(=O)COC2(c4ccc(F)cc4C#N)CC2)C3)nc1` [Example 297, 6-(3-(2-(1-(2-cyano-4-fluorophenyl)cyclopropoxy)acetyl)-3,8-diazabicyclo[3.2.1]octan-8-yl)nicotinonitrile], for which the IC50 under setting [1] lay in the range of 10 to 100 nM. Same read-out and setting: then `N#Cc1ccc(N2C3CCC2CN(C(=O)COC2(c4cc(F)ccc4C#N)CC2)C3)nc1` [Example 298, 6-(3-(2-(1-(2-cyano-5-fluorophenyl)cyclopropoxy)acetyl)-3,8-diazabicyclo[3.2.1]octan-8-yl)nicotinonitrile], with 100 to 1000 nM; and `Cn1c(C2(OCC(=O)N3CC4CCC(C3)N4c3ccc(C#N)cn3)CCC2)cccc1=O` [Example 299, 6-(3-(2-(1-(1-methyl-6-oxo-1,6-dihydropyridin-2-yl)cyclobutoxy)acetyl)-3,8-diazabicyclo[3.2.1]octan-8-yl)nicotinonitrile], with 10 to 100 nM. On the same count and under the same terms, the same measure for `Cn1ccc(C2(OCC(=O)N3CC4CCC(C3)N4c3ccc(C#N)cn3)CCC2)cc1=O` [Example 300, 6-(3-(2-(1-(1-methyl-2-oxo-1,2-dihydropyridm-4-yl)cyclobutoxy)acetyl)-3,8-diazabicyclo[3.2.1]octan-8-yl)nicotinonitrile]: 10 to 100 nM; for `Cn1ccc(=O)c(C2(OCC(=O)N3CC4CCC(C3)N4c3ccc(C#N)cn3)CC2)c1` [Example 302, 6-(3-(2-(1-(1-methyl-4-oxo-1,4-dihydropyridin-3-yl)cyclopropoxy)acetyl)-3,8-diazabicyclo[3.2.1]octan-8-yl)nicotinonitrile]: > 1000 nM; for `N#Cc1ccc(N2C3CCC2CN(C(=O)CCOC2(c4ccc(F)c(F)c4)CCC2)C3)nc1` [Example 303, 6-(3-(3-(1-(3,4-difluorophenyl)cyclobutoxy)propanoyl)-3,8-diazabicyclo[3.2.1]octan-8-yl)nicotinonitrile]: < 10 nM.

Consider `C[C@H](OCCC(=O)N1CC2CCC(C1)N2c1ccc(C#N)cn1)c1ccccc1` [Example 305, 6-(3-(3-((S)-1-phenylethoxy)propanoyl)-3,8-diazabicyclo[3.2.1]octan-8-yl)nicotinonitrile], for which the IC50 under setting [1] fell in the range of 100 to 1000 nM. Regarding `C[C@@H](OCCC(=O)N1CC2CCC(C1)N2c1ccc(C#N)cn1)c1ccc(F)c(F)c1` [Example 306, 6-(3-(3-((R)-1-(3,4-difluorophenyl)ethoxy)propanoyl)-3,8-diazabicyclo[3.2.1]octan-8-yl)nicotinonitrile], the IC50 under setting [1] was 10 to 100 nM.

For the compound `N#Cc1ccc(N2C3CCC2CN(C(=O)CCOCC2(c4ccccc4)CC2)C3)nc1` [Example 307, 6-(3-(3-((1-phenylcyclopropyl)methoxy)propanoyl)-3,8-diazabicyclo[3.2.1]octan-8-yl)nicotinonitrile], the IC50 under setting [1] lay within 100 to 1000 nM.

As to `N#Cc1ccc(N2C3CCC2CN(C(=O)CCOC2(c4ccc(F)cc4)CCC2)C3)nc1` [Example 310, 6-(3-(3-(1-(4-fluorophenyl)cyclobutoxy)propanoyl)-3,8-diazabicyclo[3.2.1]octan-8-yl)nicotinonitrile], the IC50 under setting [1] was < 10 nM. For the compound `N#Cc1ccc(N2C3CCC2CN(C(=O)COC2(c4cncc(O)c4)CCC2)C3)nc1` [Example 313, 6-(3-(2-(1-(5-hydroxypyridin-3-yl)cyclobutoxy)acetyl)-3,8-diazabicyclo[3.2.1]octan-8-yl)nicotinonitrile], the IC50 under setting [1] was < 10 nM. Still for that read-out and setting: then `N#Cc1ccc(N2C3CCC2CN(C(=O)COC2(c4cncc(OCC(F)(F)F)c4)CCC2)C3)nc1` [Example 314, 6-(3-(2-(1-(5-(2,2,2-trifluoroethoxy)pyridin-3-yl)cyclobutoxy)acetyl)-3,8-diazabicyclo[3.2.1]octan-8-yl)nicotinonitrile], with 10 to 100 nM; and `N#Cc1ccc(N2C3CCC2CN(C(=O)COC2(c4c(F)cncc4F)CCC2)C3)nc1` [Example 316, 6-(3-(2-(1-(3,5-difluoropyridin-4-yl)cyclobutoxy)acetyl)-3,8-diazabicyclo[3.2.1]octan-8-yl)nicotinonitrile], with < 10 nM.
